Test results from patent US9302999B2, “Substituted triazoles as herbicides” (E. I. DU PONT DE NEMOURS AND COMPANY, priority 2012, dated 2016).
Like-named read-outs stand apart in the source and are kept apart here.

Experiments:
Format in all cases: in vivo
[1] = test system: barnyardgrass (Echinochloa crus-galli); experiment: Test C flooded paddy test: barnyardgrass; settings: Echinochloa crus-galli, scale 0 to 100 (0 no effect, 100 complete control), read-out: Plant response rating, Barnyardgrass; for pest or weed control at 62 g/ha: 62 g ai/ha; for pest or weed control at 125 g/ha: 125 g ai/ha; for pest or weed control at 250 g/ha: 250 g ai/ha; for pest or weed control at 31 g/ha: 31 g ai/ha
How it was run: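 2-leaf stage plants; pots flooded 3 cm above soil; compound applied into paddy water, depth maintained. Greenhouse 13–15 d. Visual rating vs controls, 0–100 (0 = no effect, 100 = complete control); dash = no result.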

[2] = test system: crabgrass, large (large crabgrass, Digitaria sanguinalis); experiment: Test A pre-/postemergence: crabgrass, large; settings: for pest or weed control at 125 g/ha / pest or weed control at 500 g/ha: Digitaria sanguinalis, 240 h
How it was run: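 Each species received preemergence soil-directed spraying and, at the same time, postemergence treatment of seedlings 2–10 cm tall. Formulation: non-phytotoxic solvent mixture including surfactant. Response assessed visually about ten days on, relative to untreated controls, 0–100 scale.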

[3] = test system: bromegrass, downy (downy bromegrass, Bromus tectorum); experiment: Test C pre-/postemergence: bromegrass, downy
Source text: (§1) Seeds of plant species selected from blackgrass (Alopecurus myosuroides), bromegrass, downy (downy bromegrass, Bromus tectorum), foxtail, green (green foxtail, Setaria viridis), ryegrass, Italian (Italian ryegrass, Lolium multiflorum), winter wheat (Triticum aestivum), wild oat (Avena fatua), galium (catchweed bedstraw, Galium aparine), bermudagrass (Cynodon dactylon), surinam grass (Brachiaria decumbens), cocklebur (common cocklebur, Xanthium strumarium), corn (Zea mays), large crabgrass (Digitaria sanguinalis), woolly cupgrass (Eriochloa villosa), foxtail, giant (giant foxtail, Setaria faberii), goosegrass (Eleusine indica), johnsongrass (Sorghum halepense), kochia (Kochia scoparia), lambsquarters (Chenopodium album), morningglory (Ipomoea coccinea), nightshade (eastern black nightshade, Solanum ptycanthum), nutsedge, yellow (yellow nutsedge, Cyperus esculentus), pigweed (Amaranthus retroflexus), ragweed (common ragweed, Ambrosia elation), soybean (Glycine max), common (oilseed) sunflower (Helianthus annuus), Russian thistle (Salsola kali) and velvetleaf (Abutilon theophrasti) were planted into a blend of loam soil and sand and treated preemergence with test chemicals formulated in a non-phytotoxic solvent mixture which included a surfactant.
(§2) At the same time, plants selected from these crop and weed species and also barley (winter barley, Hordeum vulgare), canarygrass (Phalaris minor), chickweed (common chickweed, Stellaria media) windgrass (Apera spica-venti) and deadnettle (henbit deadnettle, Lamium amplexicaule) were planted in pots containing Redi-Earth® planting medium (Scotts Company, 14111 Scottslawn Road, Marysville, Ohio 43041) comprising spaghnum peat moss, vermiculite, wetting agent and starter nutrients and treated with postemergence applications of test chemicals formulated in the same manner. Plants ranged in height from 2 to 18 cm (1- to 4-leaf stage) for postemergence treatments.
(§3) Treated plants and controls were maintained in a greenhouse for 13 to 15 days, after which time all species were compared to controls and visually evaluated. Plant response ratings, summarized in Table C, are based on a scale of 0 to 100 where 0 is no effect and 100 is complete control. A dash (-) response means no test result.

[4] = test system: ragweed (common ragweed, Ambrosia elation); experiment: Test C pre-/postemergence: ragweed
Source text: as §1, §2, §3

[5] = Flood (flooded paddy test), visual rating after 13 to 15 days
[6] = post-emergence, Postemergence, 125 g ai/ha, 0 to 100 scale, 0 is no effect, 100 is complete control, read-out: Crabgrass, Large plant response rating
[7] = post-emergence, Postemergence, 500 g ai/ha, visual rating on 0 to 100 scale (0 no effect, 100 complete control), approximately ten days, read-out: Crabgrass, Large plant response rating
[8] = pre-emergence, Preemergence, 125 g ai/ha, 0 to 100 scale (0 no effect, 100 complete control), read-out: Plant response rating, Crabgrass, Large
[9] = pre-emergence, Preemergence, 500 g ai/ha, 0 to 100 scale, 0 is no effect, 100 is complete control, read-out: Plant response rating, Crabgrass, Large
[10] = Postemergence, 31 g ai/ha, scale 0 to 100 (0 no effect, 100 complete control)
[11] = Postemergence, 62 g ai/ha, scale 0 to 100 (0 no effect, 100 complete control)
[12] = Postemergence, 125 g ai/ha, scale 0 to 100, 0 no effect, 100 complete control
[13] = Postemergence, 250 g ai/ha, scale 0 to 100
[14] = Preemergence, 31 g ai/ha, scale of 0 to 100, 0 is no effect, 100 is complete control
[15] = Preemergence, 125 g ai/ha, scale 0 to 100, 0 no effect, 100 complete control
[16] = Preemergence, 250 g ai/ha, scale 0 to 100, 0 no effect, 100 complete control
[17] = Preemergence, 62 g ai/ha, scale of 0 to 100, 0 is no effect, 100 is complete control
[18] = Postemergence, 125 g ai/ha, 0 to 100 scale, 0 is no effect, 100 is complete control
[19] = Postemergence, 500 g ai/ha, visual rating on 0 to 100 scale (0 no effect, 100 complete control), approximately ten days
[20] = Preemergence, 125 g ai/ha, 0 to 100 scale where 0 is no effect and 100 is complete control
[21] = Preemergence, 500 g ai/ha, 0 to 100 scale (0 no effect, 100 complete control)
[22] = Preemergence, 31 g ai/ha, scale 0 (no effect) to 100 (complete control)
[23] = Postemergence, 500 g ai/ha, 0 to 100 scale, 0 is no effect, 100 is complete control

SMILES | pest or weed control at 125 g/ha [1, 5] [%] | pest or weed control at 250 g/ha [1, 5] [%] | pest or weed control at 31 g/ha ([1]; Flood) [%] | pest or weed control at 125 g/ha [2, 6] [%] | pest or weed control at 500 g/ha [2, 7] [%] | Plant response rating, Ragweed [4, 10] | Plant response rating, Ragweed [4, 11] | Plant response rating, Ragweed [4, 12] | Plant response rating, Ragweed [4, 13] | Plant response rating, Ragweed [4, 14] | Plant response rating, Ragweed [4, 17] | Plant response rating, Ragweed [4, 15] | Plant response rating, Ragweed [4, 16] | Crabgrass, Large plant response rating [2, 19] | Plant response rating, Crabgrass, Large [2, 20] | Plant response rating, Crabgrass, Large [2, 21] | Plant response rating, Crabgrass, Large [2, 18] | Crabgrass, Large plant response rating [2, 23] | other results
COc1nn(-c2ccc(C(F)(F)F)cc2)nc1Cn1ccc(C(F)(F)F)n1 [Compound 17, 4-methoxy-2-[4-(trifluoromethyl)phenyl]-5-[[3-(trifluoromethyl)-1H-pyrazol-1-yl]methyl]-2H-1,2,3-triazole] | 40 | 45 | 0 | 90 | 90 |  |  |  |  |  |  |  |  |  |  |  |  |  | pest or weed control at 62 g/ha [1, 5]: 20%; pest or weed control at 125 g/ha [2, 8]: 100%; pest or weed control at 500 g/ha [2, 9]: 100%
Cc1nn(-c2ccc(C(F)(F)F)cc2)nc1Cc1ccnc(C(F)(F)F)c1 [Compound 47, 4-[[5-methyl-2-[4-(trifluoromethyl)phenyl]-2H-1,2,3-triazol-4-yl]methyl]-2-(trifluoromethyl)pyridine] | 80 | 80 | 40 | 80 | 90 | 45 | 65 | 75 | 95 | 5 | 15 | 45 | 80 |  |  |  |  |  | Plant response rating, Bromegrass, Downy [3, 10]: 10; Plant response rating, Bromegrass, Downy [3, 11]: 30; Plant response rating, Bromegrass, Downy [3, 12]: 50; Plant response rating, Bromegrass, Downy [3, 13]: 65; Plant response rating, Bromegrass, Downy [3, 14]: 15; Plant response rating, Bromegrass, Downy ([3]; Preemergence, 62 g ai/ha, scale 0 to 100, 0 no effect, 100 complete control): 40; Plant response rating, Bromegrass, Downy [3, 15]: 90; Plant response rating, Bromegrass, Downy [3, 16]: 100; pest or weed control at 62 g/ha [1, 5]: 50%; pest or weed control at 125 g/ha [2, 8]: 100%; pest or weed control at 500 g/ha [2, 9]: 100%
CCc1nn(-c2ccc(C(F)(F)F)cc2)nc1Oc1cccc(OC(F)(F)F)c1 [Compound 125, 4-ethyl-5-[3-(trifluoromethoxy)phenoxy]-2-[4-(trifluoromethyl)phenyl]-2H-1,2,3-triazole] | 0 | 10 | 0 | 60 | 90 |  |  |  |  |  |  |  |  |  |  |  |  |  | pest or weed control at 62 g/ha ([1]; Flood): 0%; pest or weed control at 125 g/ha ([2]; pre-emergence, Preemergence, 125 g ai/ha, 0 to 100 scale where 0 is no effect and 100 is complete control, read-out: Plant response rating, Crabgrass, Large): 80%; pest or weed control at 500 g/ha ([2]; pre-emergence, Preemergence, 500 g ai/ha, 0 to 100 scale (0 no effect, 100 complete control), read-out: Plant response rating, Crabgrass, Large): 90%
Fc1ccc(-n2nc(Cc3ccnc(C(F)(F)F)c3)c(OCC(F)(F)F)n2)cc1 [Compound 142] |  |  |  |  |  | 65 | 70 | 75 | 75 | 40 | 40 | 70 | 80 | 100 | 100 | 100 |  |  | Plant response rating, Bromegrass, Downy [3, 10]: 25; Plant response rating, Bromegrass, Downy [3, 11]: 45; Plant response rating, Bromegrass, Downy [3, 12]: 45; Plant response rating, Bromegrass, Downy [3, 13]: 50; Plant response rating, Bromegrass, Downy [3, 14]: 20; Plant response rating, Bromegrass, Downy [3, 17]: 60; Plant response rating, Bromegrass, Downy [3, 15]: 90; Plant response rating, Bromegrass, Downy [3, 16]: 90; Crabgrass, Large plant response rating [2, 18]: 100
CCCc1nn(-c2ccc(F)cc2)nc1Cc1ccnc(C(F)(F)F)c1 [Compound 153] |  |  |  |  |  | 55 | 55 | 80 | 85 | 5 | 10 | 80 | 80 | 100 | 100 | 100 | 100 |  | 
Cc1nn(-c2ccc(C(F)(F)F)c(F)c2)nc1Cc1ccnc(C(F)(F)F)c1 [Compound 162] |  |  |  |  |  | 85 |  | 85 | 95 | 50 | 75 | 80 | 95 | 90 | 100 | 100 | 90 |  | 
CCc1nn(-c2ccc(F)cc2)nc1Oc1ccnc(C(F)(F)F)c1 [Compound 166] |  |  |  |  |  | 15 | 15 | 25 | 75 |  | 20 | 25 | 55 |  | 100 | 100 | 90 | 90 | Plant response rating, Ragweed [4, 22]: 20
CCCc1nn(-c2ccc(C(F)(F)F)c(F)c2)nc1Oc1ccnc(C(F)(F)F)c1 [Compound 185] |  |  |  |  |  | 75 | 90 | 95 |  |  | 80 | 95 | 95 |  | 100 | 100 | 90 | 90 | Plant response rating, Ragweed ([4]; Postemergence, 250 g ai/ha, scale 0 to 100 (0 no effect, 100 complete control)): 95; Plant response rating, Ragweed [4, 22]: 40
CCOc1nn(-c2ccc(Br)cc2)nc1Cc1ccnc(C(F)(F)F)c1 [Compound 189] |  |  |  |  |  |  |  |  |  |  |  |  |  |  | 100 | 100 | 80 | 90 | 
